Reference: article PMC7179119, “A New Positron Emission Tomography Probe for Orexin Receptors Neuroimaging” (Molecules, 2020)
Like-named read-outs stand apart in the source and are kept apart here.

Legend:
Assay in all cases: PDSP off-target radioligand binding assay
Alpha1A = target: T1, Alpha1A (Homo sapiens, UniProt P35348)
T1 construct: NIMH PDSP
T1 sequence (P35348 1-466): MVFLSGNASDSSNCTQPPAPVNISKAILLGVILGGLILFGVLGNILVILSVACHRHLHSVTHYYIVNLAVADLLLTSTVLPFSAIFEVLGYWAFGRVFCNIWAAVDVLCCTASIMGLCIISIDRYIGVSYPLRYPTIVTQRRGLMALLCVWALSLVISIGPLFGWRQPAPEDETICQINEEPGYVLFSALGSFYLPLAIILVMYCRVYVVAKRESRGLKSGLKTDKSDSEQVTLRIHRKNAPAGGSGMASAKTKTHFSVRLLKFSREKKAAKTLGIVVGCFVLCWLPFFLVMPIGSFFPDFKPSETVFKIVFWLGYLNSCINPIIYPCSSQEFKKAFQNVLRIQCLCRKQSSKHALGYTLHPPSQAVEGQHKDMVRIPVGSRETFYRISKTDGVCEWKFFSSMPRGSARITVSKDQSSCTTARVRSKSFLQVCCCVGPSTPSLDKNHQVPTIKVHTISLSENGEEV
Experimental: (§1) Table S1. Off binding data of CW24.
(§2) The off-target binding assays were performed at PDSP with their standard protocol (https://pdspdb.unc.edu/pdspWeb/content/UNC-CH%20Protocol%20Book.pdf). In radioligand binding assays, CW24 was tested at a single concentration (10 µM) and in quadruplicate in 96-well plates. The binding assays were carried out in a final of volume of 125 µl per well in appropriate binding buffers. The hot ligand concentration is usually at a concentration close to the Kd (unless otherwise indicated). Total binding and nonspecific binding are determined in the absence and presence of 10 µM of the appropriate reference compound, respectively. In brief, plates are usually incubated at room temperature and in the dark for 90 mins. Reactions are stopped by vacuum filtration onto 0.3% polyethyleneimine (PEI) soaked 96-well filter mats using a 96-well Filtermate harvester, followed by three washes with cold wash buffers (for details, see Tables 2 to 24). Scintillation cocktail is then melted onto the microwave-dried filters on a hot plate and radioactivity is counted in a Microbeta counter.
(§3) Receptor % Inhibition 1 % Inhibition 2 % Inhibition 3 % Inhibition 4 Mean±SD %

H2 = H2 (Homo sapiens, UniProt P25021)
H2, sequence (P25021 whole entry): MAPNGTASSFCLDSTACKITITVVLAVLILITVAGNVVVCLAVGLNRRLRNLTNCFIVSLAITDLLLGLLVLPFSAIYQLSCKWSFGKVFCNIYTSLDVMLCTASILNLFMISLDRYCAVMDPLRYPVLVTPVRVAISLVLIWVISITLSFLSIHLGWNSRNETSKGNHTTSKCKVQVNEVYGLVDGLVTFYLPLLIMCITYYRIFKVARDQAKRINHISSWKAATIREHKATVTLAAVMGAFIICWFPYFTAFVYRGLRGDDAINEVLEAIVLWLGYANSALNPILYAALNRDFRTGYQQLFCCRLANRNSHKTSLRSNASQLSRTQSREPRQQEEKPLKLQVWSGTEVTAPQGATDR
Experimental: as §1, §2, §3

H3 = H3 (Homo sapiens, UniProt Q9Y5N1)
H3, sequence (Q9Y5N1 whole entry): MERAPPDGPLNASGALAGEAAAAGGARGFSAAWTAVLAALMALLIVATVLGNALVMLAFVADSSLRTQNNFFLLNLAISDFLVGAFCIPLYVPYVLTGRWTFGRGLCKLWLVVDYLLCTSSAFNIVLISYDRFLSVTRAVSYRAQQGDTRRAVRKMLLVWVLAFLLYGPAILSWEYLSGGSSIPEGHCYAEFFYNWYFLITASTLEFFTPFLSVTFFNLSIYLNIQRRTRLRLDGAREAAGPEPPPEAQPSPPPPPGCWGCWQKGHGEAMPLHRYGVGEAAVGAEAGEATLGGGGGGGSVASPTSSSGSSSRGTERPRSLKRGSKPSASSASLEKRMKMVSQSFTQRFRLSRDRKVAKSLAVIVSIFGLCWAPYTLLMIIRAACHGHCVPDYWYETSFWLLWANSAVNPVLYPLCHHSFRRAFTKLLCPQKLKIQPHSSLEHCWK
Experimental: as §1, §2, §3

Beta2 = target: T2, Beta2 (Homo sapiens, UniProt P07550)
T2 construct: NIMH PDSP
T2 sequence (P07550 whole entry): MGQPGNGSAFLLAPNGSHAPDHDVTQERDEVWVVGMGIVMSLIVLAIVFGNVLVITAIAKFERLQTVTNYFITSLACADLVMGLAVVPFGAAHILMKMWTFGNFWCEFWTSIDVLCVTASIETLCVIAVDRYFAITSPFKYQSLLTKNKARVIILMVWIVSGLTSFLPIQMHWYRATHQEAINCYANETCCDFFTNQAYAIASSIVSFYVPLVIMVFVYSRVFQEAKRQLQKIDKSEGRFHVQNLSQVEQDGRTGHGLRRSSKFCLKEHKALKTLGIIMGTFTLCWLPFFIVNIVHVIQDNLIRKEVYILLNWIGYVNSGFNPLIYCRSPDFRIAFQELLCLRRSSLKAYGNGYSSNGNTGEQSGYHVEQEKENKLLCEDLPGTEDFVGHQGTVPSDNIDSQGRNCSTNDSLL
Experimental: as §1, §2, §3

Sigma 2 = conditions: 10 µM
Experimental: as §1, §2, §3

5-HT1E = target: T3, 5-HT1E (Homo sapiens, UniProt P28566)
T3 construct: NIMH PDSP
T3 sequence (P28566 whole entry, species assumed): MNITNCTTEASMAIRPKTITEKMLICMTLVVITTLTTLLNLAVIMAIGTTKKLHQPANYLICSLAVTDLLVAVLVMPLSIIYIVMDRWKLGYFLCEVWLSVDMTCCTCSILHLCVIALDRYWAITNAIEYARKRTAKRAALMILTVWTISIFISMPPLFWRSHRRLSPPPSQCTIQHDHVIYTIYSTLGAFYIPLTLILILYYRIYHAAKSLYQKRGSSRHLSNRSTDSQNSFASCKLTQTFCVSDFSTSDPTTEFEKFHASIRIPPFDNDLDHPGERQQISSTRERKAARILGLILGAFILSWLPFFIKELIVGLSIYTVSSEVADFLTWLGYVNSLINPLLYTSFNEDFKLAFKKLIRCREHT
Experimental: as §1, §2, §3

D1 = target: T4, D1 (Homo sapiens, UniProt P21728)
T4 construct: NIMH PDSP
T4 sequence (P21728 whole entry): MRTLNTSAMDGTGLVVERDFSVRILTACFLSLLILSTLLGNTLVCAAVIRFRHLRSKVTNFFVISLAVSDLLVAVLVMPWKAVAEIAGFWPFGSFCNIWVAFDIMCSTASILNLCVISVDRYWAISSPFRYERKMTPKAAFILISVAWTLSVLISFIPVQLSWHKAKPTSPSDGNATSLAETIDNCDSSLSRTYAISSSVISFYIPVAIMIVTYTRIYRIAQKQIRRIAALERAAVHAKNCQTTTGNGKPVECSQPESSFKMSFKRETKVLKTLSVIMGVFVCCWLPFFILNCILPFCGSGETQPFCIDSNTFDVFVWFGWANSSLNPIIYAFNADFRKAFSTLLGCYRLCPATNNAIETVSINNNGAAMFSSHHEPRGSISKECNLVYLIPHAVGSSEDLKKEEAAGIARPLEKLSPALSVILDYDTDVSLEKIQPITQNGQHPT
Experimental: as §1, §2, §3

5-HT3 = target: T5, 5-HT3 (Homo sapiens, UniProt P46098)
T5 construct: NIMH PDSP
T5 sequence (P46098 24-478): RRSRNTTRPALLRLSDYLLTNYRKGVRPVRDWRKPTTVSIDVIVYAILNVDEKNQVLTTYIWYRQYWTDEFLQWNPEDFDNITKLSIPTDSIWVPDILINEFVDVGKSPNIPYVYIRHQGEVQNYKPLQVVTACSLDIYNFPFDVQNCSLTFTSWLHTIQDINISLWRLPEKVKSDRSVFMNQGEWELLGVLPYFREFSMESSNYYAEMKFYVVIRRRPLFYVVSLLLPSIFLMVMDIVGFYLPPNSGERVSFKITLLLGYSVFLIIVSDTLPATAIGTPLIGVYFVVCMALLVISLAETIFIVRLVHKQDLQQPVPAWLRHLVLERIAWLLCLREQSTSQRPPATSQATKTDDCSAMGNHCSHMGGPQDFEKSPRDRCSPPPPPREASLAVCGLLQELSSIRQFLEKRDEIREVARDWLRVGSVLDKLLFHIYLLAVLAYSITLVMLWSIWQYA
Experimental: as §1, §2, §3

M4 = target: T6, M4 (Homo sapiens, UniProt P08173)
T6 sequence (P08173 1-479): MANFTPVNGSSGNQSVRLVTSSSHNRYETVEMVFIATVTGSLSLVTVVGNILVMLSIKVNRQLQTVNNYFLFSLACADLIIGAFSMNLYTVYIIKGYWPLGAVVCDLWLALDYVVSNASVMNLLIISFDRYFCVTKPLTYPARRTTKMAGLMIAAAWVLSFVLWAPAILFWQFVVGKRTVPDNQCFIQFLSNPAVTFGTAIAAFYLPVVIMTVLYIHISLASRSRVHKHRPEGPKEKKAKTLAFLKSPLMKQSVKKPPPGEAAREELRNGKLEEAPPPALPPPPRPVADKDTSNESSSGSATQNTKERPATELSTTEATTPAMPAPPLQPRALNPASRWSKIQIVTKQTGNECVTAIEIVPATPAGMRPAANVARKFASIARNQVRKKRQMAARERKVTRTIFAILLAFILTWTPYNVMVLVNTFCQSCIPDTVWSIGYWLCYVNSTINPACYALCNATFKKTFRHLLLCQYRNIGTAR
Experimental: as §1, §2, §3

5-HT7A = target: T7, 5-HT7A (Homo sapiens, UniProt P34969)
T7 construct: NIMH PDSP
T7 sequence (P34969 1-445 isoform P34969-2): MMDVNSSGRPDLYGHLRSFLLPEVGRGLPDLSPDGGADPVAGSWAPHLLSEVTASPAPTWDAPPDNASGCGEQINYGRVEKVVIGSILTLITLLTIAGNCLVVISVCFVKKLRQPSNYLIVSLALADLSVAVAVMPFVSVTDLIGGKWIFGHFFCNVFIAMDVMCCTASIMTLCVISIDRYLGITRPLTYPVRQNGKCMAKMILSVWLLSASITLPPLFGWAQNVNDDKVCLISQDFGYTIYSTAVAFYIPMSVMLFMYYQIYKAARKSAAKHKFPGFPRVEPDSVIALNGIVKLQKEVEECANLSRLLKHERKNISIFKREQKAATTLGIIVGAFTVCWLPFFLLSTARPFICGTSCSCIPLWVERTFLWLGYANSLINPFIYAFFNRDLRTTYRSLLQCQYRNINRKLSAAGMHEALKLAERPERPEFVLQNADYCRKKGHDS
Experimental: as §1, §2, §3

[1] = quadruplicate, read-out: Mean±SD % inhibition
[2] = replicate 1, read-out: % Inhibition 1
[3] = replicate 2, read-out: % Inhibition 2
[4] = replicate 3, read-out: % Inhibition 3
[5] = replicate 4, read-out: % Inhibition 4

## COc1ccnc(N2CCC3(CCCN(Cc4cn(C)c5ccccc45)C3=O)CC2)n1 [CW24]
Alpha1A; [1]
  inhibition at 10 µM: -7.99 ± 16.7%
Alpha1A; [2]
  inhibition at 10 µM: 17%
Alpha1A; [3]
  inhibition at 10 µM: -16.2%
Alpha1A; [4]
  inhibition at 10 µM: -17.6%
Alpha1A; [5]
  inhibition at 10 µM: -15.1%
H2; [1]
  inhibition at 10 µM: 24.2 ± 1.43%
H2; [2]
  inhibition at 10 µM: 25.4%
H2; [3]
  inhibition at 10 µM: 24.4%
H2; [4]
  inhibition at 10 µM: 24.8%
H2; [5]
  inhibition at 10 µM: 22.1%
H3; [1]
  inhibition at 10 µM: -9.38 ± 11.9%
H3; [2]
  inhibition at 10 µM: -25%
H3; [3]
  inhibition at 10 µM: -12.5%
H3; [4]
  inhibition at 10 µM: 0%
H3; [5]
  inhibition at 10 µM: 0%
Beta2; [1]
  inhibition at 10 µM: -10.5 ± 5.4%
Beta2; [2]
  inhibition at 10 µM: -12.2%
Beta2; [3]
  inhibition at 10 µM: -5.09%
Beta2; [4]
  inhibition at 10 µM: -7.41%
Beta2; [5]
  inhibition at 10 µM: -17.3%
Sigma 2; quadruplicate
  Mean±SD % inhibition: 27.22 ±10.59%
Sigma 2; replicate 1
  % Inhibition 1: 42.39%
Sigma 2; replicate 2
  % Inhibition 2: 19.45%
Sigma 2; replicate 3
  % Inhibition 3: 26.56%
Sigma 2; replicate 4
  % Inhibition 4: 20.46%
5-HT1E; [1]
  inhibition at 10 µM: 18.8 ± 12.2%
5-HT1E; [2]
  inhibition at 10 µM: 31.3%
5-HT1E; [3]
  inhibition at 10 µM: 19.5%
5-HT1E; [4]
  inhibition at 10 µM: 22.5%
5-HT1E; [5]
  inhibition at 10 µM: 2.07%
D1; [1]
  inhibition at 10 µM: 17.9 ± 12.8%
D1; [2]
  inhibition at 10 µM: 22.7%
D1; [3]
  inhibition at 10 µM: -0.84%
D1; [4]
  inhibition at 10 µM: 21.9%
D1; [5]
  inhibition at 10 µM: 28%
5-HT3; [1]
  inhibition at 10 µM: -4 ± 15.6%
5-HT3; [2]
  inhibition at 10 µM: -7.18%
5-HT3; [3]
  inhibition at 10 µM: 2.23%
5-HT3; [4]
  inhibition at 10 µM: -23.9%
5-HT3; [5]
  inhibition at 10 µM: 12.9%
M4; [1]
  inhibition at 10 µM: -3.86 ± 14.8%
M4; [2]
  inhibition at 10 µM: 0.88%
M4; [3]
  inhibition at 10 µM: -23.9%
M4; [4]
  inhibition at 10 µM: -3.92%
M4; [5]
  inhibition at 10 µM: 11.5%
5-HT7A; [1]
  inhibition at 10 µM: -54.8 ± 29.3%
5-HT7A; [2]
  inhibition at 10 µM: -92.7%
5-HT7A; [3]
  inhibition at 10 µM: -50.8%
5-HT7A; [4]
  inhibition at 10 µM: -54.3%
5-HT7A; [5]
  inhibition at 10 µM: -21.2%
